Laboratory results from paper PMC5078989, “Targeted inhibition of the COP9 signalosome for treatment of cancer” (Nature Communications, 2016).

Tested on: panel of cancer cell lines
Experiment: Cell viability (CellTiter-Glo) dose-response across cancer cell line panel;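 also: after 72 h compound incubation with CellTiter-Glo ATP readout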
Type: cell-based, human
Conditions: Homo sapiens
Text: Next, we explored the effect of CSN5 inhibition on the viability of cancer cells. To obtain a comprehensive picture, we generated dose–response curves with a CSN5 inhibitor across more than 500 cancer cell lines in a previously described standardized setting[47] (Supplementary Data 1).
A standardized CellTiter-Glo Assay (Promega #G7570) based on the quantification of ATP was applied according to the manufacturer's protocol to measure the amount of viable cells in culture. In brief, cells were seeded into 384-well plates at optimal density for each cell line. After 4 h, compounds were added at different concentrations in growth medium and incubated for another 72 h in a humidifying chamber at 37 °C and 5% CO2. […] EC50 values were calculated from the plot of percentage of inhibition versus inhibitor concentration using the nonlinear regression analysis software Origin 7.5SR6 (OriginLab Corp.).

## NS(=O)(=O)OC[C@@H]1C[C@@H](n2ccc3c(N[C@H]4CCc5ccccc54)ncnc32)C[C@@H]1O [MLN4924]
HEC-251, HEC-251
  EC50: 8160 nM
HEC-265
  EC50: 20000 nM
HEL
  EC50: 190 nM
HEL 92.1.7, HEL 92.1.7
  EC50: 94.8 nM
HEY A8, Hey-A8
  EC50: 114 nM
HL-60, HL-60
  EC50: 361 nM
HLC-1
  EC50: 981 nM
HLE
  EC50: 454 nM
HLF
  EC50: 739 nM
HMC-1-8
  EC50: 154 nM
HPAC
  EC50: 830 nM
HPBALL, HPB-ALL
  EC50: 333 nM
HRT-18, HRT-18
  EC50: 1860 nM
HSC-2, HSC-2
  EC50: 146 nM
HSC-3, HSC-3
  EC50: 292 nM
HSC-4, HSC-4
  EC50: 268 nM
HT-29, HT-29
  EC50: 2230 nM
HT-1080, HT-1080
  EC50: 215 nM
Hep3B
  EC50: 2560 nM
Hep 3B2.1-7
  EC50: 4280 nM
Hs 294T
  EC50: 1860 nM
Hs 695T
  EC50: 719 nM
Hs766T, Hs 766T
  EC50: 18800 nM
Hs 852.T
  EC50: 804 nM
Hs 936.T
  EC50: 202 nM
Hs 939.T
  EC50: 600 nM
Hs 944.T
  EC50: 898 nM
HuH-6, HuH-6
  EC50: 4960 nM
HuP-T4, HUP-T4
  EC50: 360 nM
Huh-7, HuH-7
  EC50: 723 nM
IGR-37, IGR-37
  EC50: 613 nM
IGR-39, IGR-39
  EC50: 545 nM
IGROV-1, IGROV1
  EC50: 399 nM
IPC-298, IPC-298
  EC50: 716 nM
IST-MES2
  EC50: 421 nM
Ishikawa
  EC50: 213 nM
J82, J82
  EC50: 1650 nM
JHH7, JHH-7
  EC50: 12200 nM
JHH-4, JHH-4
  EC50: 594 nM
JHOM-1
  EC50: 1300 nM
JHOS-2
  EC50: 274 nM
JHUEM-2
  EC50: 952 nM
JHUEM-3
  EC50: > 30000 nM
JIMT-1, JIMT-1
  EC50: 8670 nM
JL-1
  EC50: 2290 nM
JU77
  EC50: 304 nM
JVM-2, JVM-2
  EC50: 83.5 nM
K029AX
  EC50: 1740 nM
KARPAS-422, KARPAS-422
  EC50: 654 nM
KATO III
  EC50: 711 nM
KBM-7, KBM-7
  EC50: 106 nM
KCI-MOH1
  EC50: 2000 nM
KE-97, KE-97
  EC50: 210 nM
KLE
  EC50: 897 nM
KM12, KM12
  EC50: 1570 nM
KMM-1, KMM-1
  EC50: 462 nM
KMRC-1, KMRC-1
  EC50: 435 nM
KMRC-20
  EC50: 1520 nM
KMS-11, KMS-11
  EC50: 426 nM
KNS-42, KNS-42
  EC50: 282 nM
KNS-60
  EC50: 486 nM
KNS-62, KNS-62
  EC50: 398 nM
KP-1N
  EC50: 15600 nM
KP-1NL
  EC50: 13600 nM
KP-2
  EC50: 4050 nM
KP-4, KP4
  EC50: 828 nM
KS-1
  EC50: 336 nM
KU-19-19, KU-19-19
  EC50: 922 nM
KURAMOCHI
  EC50: 1250 nM
KYSE-30, KYSE-30
  EC50: 356 nM
KYSE-70, KYSE-70
  EC50: 1060 nM
KYSE-150, KYSE-150
  EC50: 725 nM
KYSE-180, KYSE-180
  EC50: 1290 nM
Kasumi-3, Kasumi3
  EC50: 292 nM
Kasumi-6
  EC50: 286 nM
L3.3
  EC50: 120 nM
L-363, L-363
  EC50: 139 nM
L-428, L-428
  EC50: 3080 nM
LC-1/sq-SF
  EC50: 926 nM
LC-1F
  EC50: 586 nM
LC-2-ad, LC2/ad
  EC50: 540 nM
LCLC-103H
  EC50: 573 nM
LIM1899
  EC50: 2310 nM
LIM2099
  EC50: 440 nM
LIM2405
  EC50: 305 nM
LIM2550
  EC50: 53.5 nM
LMSU
  EC50: 100 nM
LN-18, LN-18
  EC50: 178 nM
LO68
  EC50: 3750 nM
LOU-NH91, LOU-NH91
  EC50: 296 nM
LOX IMVI
  EC50: 262 nM
LP-1, LP-1
  EC50: 536 nM
LS180, LS 180
  EC50: 175 nM
LUDLU-1, LUDLU-1
  EC50: 2510 nM
Li-7, Li-7
  EC50: 827 nM
Lu-65, LU65
  EC50: 922 nM
Lu-99, LU99
  EC50: 98.5 nM
M-07e
  EC50: 1020 nM
MCAS
  EC50: 529 nM
MCC13
  EC50: 4250 nM
MCC14/2
  EC50: 36.1 nM
MCC26
  EC50: 652 nM
MDA-MB-134-VI
  EC50: 678 nM
MDA-MB-157, MDA-MB-157
  EC50: 8450 nM
MDA-MB-175-VII
  EC50: 448 nM
MDA-MB-231, MDA-MB-231
  EC50: 422 nM
MDA-MB-415, MDA-MB-415
  EC50: > 30000 nM
MDA-MB-435S
  EC50: 3550 nM
MDA-MB-436, MDA-MB-436
  EC50: 1430 nM
MDA-MB-453, MDA-MB-453
  EC50: 106 nM
MDA-MB-468, MDA-MB-468
  EC50: 396 nM
MDST8, MDST8
  EC50: 311 nM
ME-180, ME180
  EC50: 177 nM
MEC1, MEC-1
  EC50: 302 nM
MEL-HO
  EC50: 873 nM
MEL-JUSO
  EC50: 364 nM
MES-SA
  EC50: 932 nM
MFE-280, MFE-280
  EC50: 364 nM
MFE-296, MFE-296
  EC50: 109 nM
MFE-319
  EC50: 3660 nM
MFM-223, MFM223
  EC50: 105 nM
MG-63, MG-63
  EC50: 261 nM
MIA PaCa-2, MIA PaCa-2
  EC50: 518 nM
MINO
  EC50: 13.1 nM
MKN-1, MKN1
  EC50: 1020 nM
MKN-45, MKN-45
  EC50: 363 nM
ML-2, ML-2
  EC50: 57.1 nM
MM127
  EC50: 325 nM
MM138
  EC50: 251 nM
MM170
  EC50: 334 nM
MM253
  EC50: 35.5 nM
MM370
  EC50: 273 nM
MM383
  EC50: 281 nM
MM386
  EC50: 950 nM
MM415
  EC50: 675 nM
MM426
  EC50: 754 nM
MM466
  EC50: 2560 nM
MM473, MM473
  EC50: 589 nM
MM485
  EC50: 820 nM
MM537
  EC50: 84.6 nM
MM576
  EC50: 511 nM
MM603
  EC50: 415 nM
MOG-G-CCM
  EC50: 2350 nM
MOLM-13, MOLM-13
  EC50: 46.3 nM
MOLP-8, MOLP-8
  EC50: 132 nM
